Results from article PMC9516332 (Frontiers in Oncology, 2022).
Read-outs that look alike come from different tables or passages of the source.

System: 134 cancer cell lines
Test: Cell viability assay (ATPlite, 72 hours), IC50 on cancer cell line panel

lower IC50 of the most sensitive cell line compared to the panel average (134 cell line panel): more than 1000 fold | IC50 (HEC-6, read-out: IC50 in cell proliferation assay, HEC-6 cell line (EGFR p.A289V)): 2.51 µM | IC50 (Homo sapiens, 769-P, read-out: IC50 in cell proliferation assay, cell line 769-P): 0.032 µM | IC50 (Homo sapiens, 786-0, read-out: IC50 in cell proliferation assay, cell line 786-O): 3.04 µM | IC50 (Homo sapiens, A 172, read-out: IC50 in cell proliferation assay, cell line A-172): 3.62 µM | IC50 (Homo sapiens, A204, read-out: IC50 in cell proliferation assay, cell line A-204): 2.51 µM | IC50 (Homo sapiens, A498, read-out: IC50 in cell proliferation assay, cell line A-498): 2.57 µM | IC50 (Homo sapiens, A549, read-out: IC50 in cell proliferation assay, cell line A-549): 6.63 µM | IC50 (Homo sapiens, A704, read-out: IC50 in cell proliferation assay, cell line A-704): 3.91 µM | IC50 (Homo sapiens, A-375, read-out: IC50 in cell proliferation assay, cell line A-375 (BRAF p.V600E)): 3.46 µM | IC50 (Homo sapiens, A-427, read-out: IC50 in cell proliferation assay, cell line A-427): 2.89 µM | IC50 (Homo sapiens, ACHN, read-out: IC50 in cell proliferation assay, cell line ACHN): 0.011 µM | IC50 (Homo sapiens, AN3-CA, read-out: IC50 in cell proliferation assay, cell line AN3-CA (FGFR2 p.N549K)): 3.75 µM | IC50 (Homo sapiens, ASPC1, read-out: IC50 in cell proliferation assay, cell line AsPC-1): 5.82 µM | IC50 (Homo sapiens, AU565, read-out: IC50 in cell proliferation assay, cell line AU565 (ERBB2 amplification)): 0.068 µM | IC50 (Homo sapiens, BT-20, read-out: IC50 in cell proliferation assay, cell line BT-20): 5.62 µM | IC50 (Homo sapiens, BT-474, read-out: IC50 in cell proliferation assay, cell line BT-474 (ERBB2 amplification)): 0.037 µM | IC50 (Homo sapiens, BT-549, read-out: IC50 in cell proliferation assay, cell line BT-549): 3.68 µM | IC50 (Homo sapiens, BXPC-3, read-out: IC50 in cell proliferation assay, cell line BxPC-3): 4.06 µM | IC50 (Homo sapiens, C-33-A, read-out: IC50 in cell proliferation assay, cell line C-33 A): 0.04 µM | IC50 (Homo sapiens, CAL-27, read-out: IC50 in cell proliferation assay, cell line CAL-27): 0.011 µM | IC50 (Homo sapiens, CCF-STTG1, read-out: IC50 in cell proliferation assay, cell line CCF-STTG1): 5.61 µM | IC50 (Homo sapiens, CCRF-CEM, read-out: IC50 in cell proliferation assay, cell line CCRF-CEM): 3.27 µM | IC50 (Homo sapiens, COLO 205, read-out: IC50 in cell proliferation assay, cell line COLO 205 (BRAF p.V600E)): 4.28 µM | IC50 (Homo sapiens, COLO-829, read-out: IC50 in cell proliferation assay, cell line COLO 829 (BRAF p.V600E)): 6.02 µM | IC50 (Homo sapiens, DLD-1, read-out: IC50 in cell proliferation assay, cell line DLD-1): 3.24 µM | IC50 (Homo sapiens, DU-4475, read-out: IC50 in cell proliferation assay, cell line DU4475 (BRAF p.V600E)): 5.24 µM | IC50 (Homo sapiens, Daoy, read-out: IC50 in cell proliferation assay, cell line Daoy): 3.77 µM | IC50 (Homo sapiens, DoTc2-4510, read-out: IC50 in cell proliferation assay, cell line DoTc2 4510): 0.012 µM | IC50 (Homo sapiens, EOL1, read-out: IC50 in cell proliferation assay, cell line EoL-1 (FIP1L1-PDGFRA)): 0.72 µM | IC50 (Homo sapiens, FaDu, read-out: IC50 in cell proliferation assay, cell line FaDu): 0.013 µM | IC50 (Homo sapiens, G-361, read-out: IC50 in cell proliferation assay, cell line G-361 (BRAF p.V600E)): 4.11 µM | IC50 (Homo sapiens, HCC827, read-out: IC50 in cell proliferation assay, cell line HCC827 (EGFR exon19del)): 0.00113 µM | IC50 (Homo sapiens, HCC4006, read-out: IC50 in cell proliferation assay, cell line HCC4006 (EGFR exon19del)): 0.00119 µM | IC50 (Homo sapiens, HCT-15, read-out: IC50 in cell proliferation assay, cell line HCT 15): 3.45 µM | IC50 (Homo sapiens, HCT-116, read-out: IC50 in cell proliferation assay, cell line HCT 116): 2.3 µM | IC50 (Homo sapiens, HEC-1, read-out: IC50 in cell proliferation assay, HEC-1 cell line): 1.91 µM | IC50 (Homo sapiens, HEC-1B, read-out: IC50 in cell proliferation assay, HEC-1-B cell line (EGFR p.A864V)): 0.014 µM | IC50 (Homo sapiens, HL-60, read-out: IC50 in cell proliferation assay, HL-60 cell line): 1.74 µM | IC50 (Homo sapiens, HT, read-out: IC50 in cell proliferation assay, HT cell line): 3.76 µM | IC50 (Homo sapiens, HT-1080, read-out: IC50 in cell proliferation assay, HT-1080 cell line): 2.79 µM | IC50 (Homo sapiens, Hs746T, read-out: IC50 in cell proliferation assay, Hs 746.T cell line (MET exon14skip + amplification)): 3.12 µM | IC50 (Homo sapiens, Hs-578T, read-out: IC50 in cell proliferation assay, Hs 578T cell line): 3.09 µM | IC50 (Homo sapiens, HuTu80, read-out: IC50 in cell proliferation assay, HuTu 80 cell line): 4.06 µM | IC50 (Homo sapiens, J82, read-out: IC50 in cell proliferation assay, J82 cell line): 3.95 µM | IC50 (Homo sapiens, Jurkat E6.1, read-out: IC50 in cell proliferation assay, Jurkat E6.1 cell line): 3.18 µM | IC50 (Homo sapiens, K562, read-out: IC50 in cell proliferation assay, K-562 cell line): 3.44 µM | IC50 (Homo sapiens, KATO III, read-out: IC50 in cell proliferation assay, KATO III cell line (FGFR2 amplification)): 2.96 µM | IC50 (Homo sapiens, KG-1, read-out: IC50 in cell proliferation assay, KG-1 cell line (FGFR1OP2-FGFR1)): 2.57 µM | IC50 (Homo sapiens, KLE, read-out: IC50 in cell proliferation assay, KLE cell line): 3.44 µM | IC50 (Homo sapiens, KMS-11, read-out: IC50 in cell proliferation assay, KMS-11 cell line (FGFR3 p.Y373C)): 3.54 µM | IC50 (Homo sapiens, KU812, read-out: IC50 in cell proliferation assay, Ku812 cell line): 3.2 µM | IC50 (Homo sapiens, Kasumi 1, read-out: IC50 in cell proliferation assay, Kasumi-1 cell line (KIT p.N822K)): 1.63 µM | IC50 (Homo sapiens, LC-2-ad, read-out: IC50 in cell proliferation assay, LC-2/ad cell line (CCDC6-RET)): 2.89 µM | IC50 (Homo sapiens, LNCaP-Clone-FGC, read-out: IC50 in cell proliferation assay, LNCaP clone FGC cell line): 7.97 µM | IC50 (Homo sapiens, LS174T, read-out: IC50 in cell proliferation assay, LS174T cell line): 2.67 µM | IC50 (Homo sapiens, LS-411N, read-out: IC50 in cell proliferation assay, LS411N cell line (BRAF p.V600E)): 4.24 µM | IC50 (Homo sapiens, LoVo, read-out: IC50 in cell proliferation assay, LoVo cell line): 4.3 µM | IC50 (Homo sapiens, MCF7, read-out: IC50 in cell proliferation assay, MCF-7 cell line): 12.9 µM | IC50 (Homo sapiens, MDA-MB-231, read-out: IC50 in cell proliferation assay, MDA-MB-231 cell line): 3.69 µM | IC50 (Homo sapiens, MDA-MB-453, read-out: IC50 in cell proliferation assay, MDA-MB-453 cell line): 3.25 µM | IC50 (Homo sapiens, MDA-MB-468, read-out: IC50 in cell proliferation assay, MDA-MB-468 cell line): 0.033 µM | IC50 (Homo sapiens, MG-63, read-out: IC50 in cell proliferation assay, MG-63 cell line): 4 µM | IC50 (Homo sapiens, MIA PaCa-2, read-out: IC50 in cell proliferation assay, MIA PaCa-2 cell line): 3.93 µM | IC50 (Homo sapiens, MKN-45, read-out: IC50 in cell proliferation assay, MKN45 cell line (MET amplification)): 4.25 µM | IC50 (Homo sapiens, MOLM-13, read-out: IC50 in cell proliferation assay, MOLM-13 cell line (FLT3 ITD)): 1.17 µM | IC50 (Homo sapiens, MOLT-4, read-out: IC50 in cell proliferation assay, MOLT-4 cell line): 3.64 µM | IC50 (Homo sapiens, MV4-11, read-out: IC50 in cell proliferation assay, MV4-11 cell line (FLT3 ITD)): 0.23 µM | IC50 (Homo sapiens, MeWo, read-out: IC50 in cell proliferation assay, MeWo cell line): 3.92 µM
Compound: COc1cc2ncnc(Nc3ccc(F)c(Cl)c3)c2cc1NC(=O)/C=C/CN1CCCCC1 [dacomitinib]
